From article PMC12040169 (PLOS Biology, 2025) come the findings set out here.

The first data set in a line: in vitro. The settings on record: human, hela cells, % viability.
With `CC(C)(C)c1csc(NC(=O)C2CC(=O)N(C3CCCC3)C2)n1` (stereo not shown) [CBK175544], the viability at 28.5 h, 10 µM worked out at 105%. `O=C1Nc2ccccc2S(=O)(=O)N2CCCC12` (stereo not shown) [CBK282864]: the viability at 28.5 h, 10 µM was determined as 112%. The same measure, in the same setting: as for `O=C(Nc1cccc(OC(=O)c2cccc(S(=O)(=O)N3CCOCC3)c2)c1)c1ccccc1` [CBK261365], the figure is 85.5%; as for `FC(F)(F)Oc1ccc(-n2cc(-c3ccsc3)nn2)cc1` [CBK113096], 92.7%. Same read-out and setting: for `Cc1cccc(OCc2nnc(SCc3nc4ccccc4c(=O)[nH]3)o2)c1` [CBK269030] the value was 98.7%; for `CCC1CCC2(CC1)NC(=O)N(Cc1cc(-c3ccccc3)on1)C2=O` (stereo not shown) [CBK294977], 90.1%; for `CCCC(=O)N1CCC(c2nc3ccc(F)cc3cc2N)CC1` [CBK284655], 92.1%. As to `Cc1ccc(-c2nnc([C@H]3CCN(Cc4ccc(CO)o4)C3)o2)cc1` [CBK289399], the viability at 28.5 h, 10 µM came to 90%. Regarding `S=C(Nc1ccccc1)c1ccccc1` [CBK005397], the viability at 28.5 h, 10 µM is 100%. Regarding `CSc1ncc(Cl)c(C(=O)Nc2ccc(S(=O)(=O)N3CCOCC3)cc2)n1` [CBK268775], the viability at 28.5 h, 10 µM turned out to be 106%. For the compound `c1cn2c(-c3ccoc3)cnc(N3CCOCC3)c2n1` [CBK091292], the viability at 28.5 h, 10 µM turned out to be 88.7%. Same read-out and setting: as for `Nc1nc(N)nc(CSc2ncc(-c3ccccc3)n2-c2ccccc2)n1` [CBK297103], the figure is 85.9%; as for `CN1CCN(C(S)=Nc2ccc(S(N)(=O)=O)cc2)CC1` [CBK265223], 92.5%; as for `O=c1[nH]n(-c2ccccc2)c(=O)n1Cc1ccccc1F` [CBK122770], 95%. With `O=C1NC2(CCCN(C(=O)c3cccs3)C2)Oc2ccccc21` (stereo not shown) [CBK284799], the viability at 28.5 h, 10 µM was determined as 93%. Consider `Cc1ccc2oc(C(=O)Nc3sc4c(c3C(=O)NCC3CCCO3)CCC4)c(C)c2c1` (stereo not shown) [CBK266282], for which the viability at 28.5 h, 10 µM is 111%.

Take `O=[N+]([O-])c1cccnc1Oc1cccc(Cl)c1Cl` [CBK002596]: the viability at 28.5 h, 10 µM came to 98%. Take `Cc1csc(Sc2nccnc2N2CCCC2)n1` [CBK093735]: the viability at 28.5 h, 10 µM came out at 90.3%. For `O=[N+]([O-])c1ccccc1N/C(=N/S(=O)(=O)c1ccccc1)c1ccccc1` [CBK262336], the viability at 28.5 h, 10 µM turned out to be 85.8%. As to `C/C(=N\NC(=O)CN(c1ccc(C)cc1)S(=O)(=O)c1ccccc1)c1ccc(Cl)cc1` [CBK262229], the viability at 28.5 h, 10 µM was 93.3%. In the case of `O=C(N/N=C/c1cc([N+](=O)[O-])ccc1Cl)c1ccc(O)c(O)c1` [CBK261599], the viability at 28.5 h, 10 µM came to 112%. With `O=C(C1=C(O)C(=O)N(CCCN2CCOCC2)C1c1cccs1)c1cccs1` (stereo not shown) [CBK264533], the viability at 28.5 h, 10 µM stood at 111%. Same read-out and setting: as for `O=C(CC1NCCNC1=O)Nc1ccc2c(c1)OCCO2` (stereo not shown) [CBK266837], the figure is 99.3%. Consider `Cc1nn(C)c(C(=O)NNC(=S)Nc2ccc(S(N)(=O)=O)cc2)c1Br` [CBK266963], for which the viability at 28.5 h, 10 µM came out at 92.5%. `Cc1nccn1CC(C)CNc1ccc(C(=O)c2ccccc2)cc1[N+](=O)[O-]` (stereo not shown) [CBK298336]: the viability at 28.5 h, 10 µM amounted to 80.4%. Regarding `CC(C)Nc1cccnc1N(C)C1CCN(C(=O)c2cc(Br)c[nH]2)CC1` [CBK016797], the viability at 28.5 h, 10 µM was found to be 105%. For `O=C(NC1CCC1)c1cn2cc(-c3cccs3)n(CC3CC3)c(=O)c2n1` [CBK306863], the viability at 28.5 h, 10 µM is 82.9%.

`Cc1cc2ncc3c(n2n1)CC1CCC3N1Cc1ccc(C)o1` (stereo not shown) [CBK284412]: the viability at 28.5 h, 10 µM turned out to be 88.9%.

As for `CC(Cc1cnccn1)NC(=O)Nc1cc(N2CCOCC2)ccc1Cl` (stereo not shown) [CBK306954], the viability at 28.5 h, 10 µM was 111%. For the compound `Cn1cc(C(=O)NC2CCN(c3ccc(C#N)cc3F)CC2)cn1` [CBK304939], the viability at 28.5 h, 10 µM is 83.7%. For the compound `Cc1cc(C[C@@H]2CCC[C@H]2NCc2nc3ccccc3[nH]2)on1` [CBK284935], the viability at 28.5 h, 10 µM is 87.3%. For `CCOc1ccc(S(=O)(=O)N2CCN(S(=O)(=O)c3cccc([N+](=O)[O-])c3)CC2)cc1` [CBK266341], the viability at 28.5 h, 10 µM is 95.9%. As for `COc1cnc(-c2cccc(C(=O)N(C)C)c2)c(NC(=O)c2ccccc2)n1` [CBK145385], the viability at 28.5 h, 10 µM is 102%. As to `Nc1ncc(-c2ccc(C(F)(F)F)cc2)nc1-c1ccc(C(=O)N2CCOCC2)cc1` [CBK090524], the viability at 28.5 h, 10 µM was 103%.

Turning to `O=C(O)C1(Oc2ccc3ccccc3c2)CCN(CC2CCOC2)CC1` (stereo not shown) [CBK306767], the viability at 28.5 h, 10 µM worked out at 91.4%. For the compound `CC(c1nc2ccccc2[nH]1)N1CCC2(CC1)NCCc1c2[nH]c2ccccc12` (stereo not shown) [CBK040061], the viability at 28.5 h, 10 µM was 90.3%. As for `CN(C)S(=O)(=O)N(CC(=O)Nc1ccccc1C(F)(F)F)c1ccccc1` [CBK268665], the viability at 28.5 h, 10 µM stood at 102%. For `COC(=O)c1ccc(NC(=S)NC(=O)c2cncc(Br)c2)cc1` [CBK099257], the viability at 28.5 h, 10 µM is 87.9%. `Cn1c(C(=O)O)ccc1S(=O)(=O)NCc1ccco1` [CBK113686]: the viability at 28.5 h, 10 µM is 105%. On to `CC(C)c1ccc(S(=O)(=O)n2c(=O)n(CCc3c[nH]c4ccccc34)c3ccccc32)cc1` [CBK106518], for which the viability at 28.5 h, 10 µM was 87.4%. Regarding `Cc1cc2ncc3c(n2n1)CC1CCC3N1C(=O)c1cccs1` (stereo not shown) [CBK284415], the viability at 28.5 h, 10 µM is 103%. Still for that read-out and setting: for `CC(C)(C)c1cc(C(=O)NCC(=O)NCC(=O)O)cc(C(C)(C)C)c1` [CBK262200] the value was 96%; for `Cc1ccc(OC(=O)CCC(=O)Nc2ccc(S(N)(=O)=O)cc2)cc1` [CBK264708], 95.1%; for `CC(C)NC(=S)N1CC[C@@]2(NC(N)=O)N=C(N)O[C@H]2C1` [CBK010049], 93.1%.

`CC(C)C(=O)N1CC(C)N(CCCC(c2ccc(F)cc2)c2ccc(F)cc2)CC1C` (stereo not shown) [CBK024961C]: the viability at 28.5 h, 10 µM worked out at 97.6%. `CC12CCC(CC1C(=O)NC1CC1)[C@]1(C2)NC(=O)c2ccccc2N1` (stereo partly shown) [CBK284445]: the viability at 28.5 h, 10 µM was 92.2%. `CCCCn1nc(Cn2cncn2)nc1CC1NC(=O)c2ccccc21` (stereo not shown) [CBK307395]: the viability at 28.5 h, 10 µM came out at 108%. The same measure, in the same setting: for `C=CCSc1nc(-c2ccc(OCCC)cc2)n[nH]1` [CBK267323] the value was 100%; for `COc1cccc(-c2cccc(NS(=O)(=O)c3ccc4c(c3)CCC(=O)N4)c2)c1` [CBK286372], 105%; for `CCCCNC(=O)CCCN(CC)CCC1=CC2(CCCC2)c2ccccc21` [CBK013232], 91.7%. On the same count and under the same terms, as for `COCc1nc2n(n1)CC(NC(C)C(C)OCc1ccccc1)CC2` (stereo not shown) [CBK304724], the figure is 95.8%. Take `COc1ccc(-n2ncc(CN(C)C)n2)cc1OC` [CBK112862]: the viability at 28.5 h, 10 µM stood at 101%. For the compound `COc1cc(C(C)NC2CCN(c3nc(C)cs3)CC2)ccn1` (stereo not shown) [CBK304247], the viability at 28.5 h, 10 µM was determined as 83.4%.

As for `c1cncc(CNc2nccnc2-c2ccoc2)c1` [CBK037635], the viability at 28.5 h, 10 µM was found to be 96.4%. As to `Nc1ncnc(NCCCc2ccccc2)c1[N+](=O)[O-]` [CBK267261], the viability at 28.5 h, 10 µM was 88.9%. Still for that read-out and setting: as for `N#Cc1ccsc1NC(=O)CN1CCN(c2cccc(Cl)c2)CC1` [CBK306192], the figure is 81.1%; as for `N#Cc1ccc(-n2ncc(-c3cccc(C(F)(F)F)c3)n2)cc1` [CBK112675], 90.9%; as for `c1ccc(-c2nccnc2NCC2CC2)cc1` [CBK088539], 88.4%. With `Cc1ccc(NC(=O)CSc2nc3[nH]ncc3c(=O)[nH]2)cc1` [CBK287675], the viability at 28.5 h, 10 µM came to 93.5%. As for `O=C(N[C@H]1CO[C@H]2[C@@H]1OC[C@@H]2n1cc(CC2CCCCC2)nn1)C1CC1` [CBK289509], the viability at 28.5 h, 10 µM came out at 92.2%. On to `COCC(C)NC(=O)Cn1c(C(F)F)cc2cccnc21` (stereo not shown) [CBK285010], for which the viability at 28.5 h, 10 µM was 105%.

As for `N#Cc1ccc(-c2cnc(N)c(-c3ccccc3Cl)n2)cc1` [CBK113660], the viability at 28.5 h, 10 µM was found to be 88.5%. Consider `Cc1cc(S(=O)(=O)NCc2ccccc2)ccc1OCC(=O)N1CCN(C)CC1` [CBK268274], for which the viability at 28.5 h, 10 µM amounted to 86.4%. On the same count and under the same terms, as for `Cc1noc(C)c1CN1CC2CCN(c3ccccc3)C2C1` (stereo not shown) [CBK304847], the figure is 99.7%; as for `c1csc(CSc2nnc3sc4ccccc4n23)c1` [CBK266291], 87.9%; as for `O=C(O)CC1(CC(=O)N2CC[C@H]3NC(=O)N(c4ccc(F)cc4)C(=O)[C@H]32)CCCC1` [CBK289327], 97.7%. For `Cc1ccc(C)c(NC(=O)C2CN(S(=O)(=O)c3ccccc3)CCN2S(=O)(=O)c2ccccc2)c1` (stereo not shown) [CBK267349], the viability at 28.5 h, 10 µM amounted to 93.5%. As for `CN1CCN(c2ccc(NC(=O)c3cc4oc(-c5ccccc5)nc4c(=O)n3C)cc2)CC1` [CBK200425], the viability at 28.5 h, 10 µM was 94.9%.

Turning to `CC1=C[C@@H](CNS(=O)(=O)c2ccccc2)[C@H](C(C)C)C[C@H]1CC(=O)N1CCOCC1` [CBK289049], the viability at 28.5 h, 10 µM came out at 79.7%. The same measure, in the same setting: as for `COc1ccc(-c2cc(Nc3ccc(N(C)C)cc3)ncn2)cc1OC` [CBK036969], the figure is 108%.

Consider `CCOC(=O)C1CCCN1Cc1ccccc1` (stereo not shown) [CBK278278G], for which the viability at 28.5 h, 10 µM turned out to be 95%. Still for that read-out and setting: as for `NC(CC(=O)O)c1ccc(OCc2ccccc2)cc1` (stereo not shown) [CBK286999], the figure is 80.9%; as for `CCCCC(Sc1nc(N)cc(Cl)n1)c1cc(C)ccn1` (stereo not shown) [CBK016827], 106%; as for `Cc1[nH]c(=O)c(C#N)cc1C(=O)N(C)Cc1cc(-c2ccncc2)no1` [CBK306859], 113%. `O=C(O)CNC(=O)[C@H]1CC[C@H](Cn2cnc3ccccc3c2=O)CC1` [CBK286714]: the viability at 28.5 h, 10 µM was 97%.

For the compound `Fc1cnc(Nc2ccccc2)nc1N1CCOCC1` [CBK287279], the viability at 28.5 h, 10 µM worked out at 76.5%. Still for that read-out and setting: for `Cc1cc(NC(c2cccc([N+](=O)[O-])c2)c2ccc3cccnc3c2O)no1` (stereo not shown) [CBK296083] the value was 89.1%; for `Fc1ccc(CCN2CCC(Oc3cncc(OCc4cccnc4)n3)C2)cc1` (stereo not shown) [CBK084469], 97.8%.

The same data set, now with this note: human, hela cells, % viability, bulk resorufin, single well.
For `CCc1ccccc1N1C(=O)NC(=O)/C(=C\c2ccc(OCC(=O)O)c(Cl)c2)C1=O` [CBK264107], the viability at 28.5 h, 10 µM came to 95.2%.
